How the values were obtained:
[1] = target: T1, PAF receptor (human platelet membrane) (Homo sapiens, UniProt P25105); assay: Assay A: Human Platelet Receptor Binding (inhibition of specific [^3 H]PAF binding to human platelet membrane preparation); settings: for IC50: human platelet membranes, 0.75 nM [^3 H]PAF, 30 minutes at 24° C., pH 7.4
T1 construct: The platelets were broken by freezing in a dry ice-ethanol bath; tissue Lifesource, Inc. (Glenview, Ill.); host or cells: human packed platelets (membrane preparation)
T1 sequence (P25105 whole entry): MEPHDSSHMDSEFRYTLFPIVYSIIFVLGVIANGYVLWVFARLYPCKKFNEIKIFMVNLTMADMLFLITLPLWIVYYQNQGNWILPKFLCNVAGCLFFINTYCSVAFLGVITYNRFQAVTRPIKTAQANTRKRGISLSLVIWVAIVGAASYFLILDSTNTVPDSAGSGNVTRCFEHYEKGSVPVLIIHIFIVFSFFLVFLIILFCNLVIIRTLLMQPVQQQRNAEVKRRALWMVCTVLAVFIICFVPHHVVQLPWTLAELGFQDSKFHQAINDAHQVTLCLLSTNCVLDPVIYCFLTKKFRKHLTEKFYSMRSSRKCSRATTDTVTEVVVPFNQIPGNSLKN
Procedure: Compounds of the invention were evaluated for their ability to inhibit specific binding of [^3 H]PAF to human platelet membrane preparation. Human packed platelets were obtained from Lifesource, Inc. (Glenview, Ill.) and washed 3 times with 10 mM Trizma pH 7.0, 2 mM EDTA (dipotassium salt), 150 mM KCL and then once with 10 mM Trizma 7.4, 20 mM CaCL2. The platelets were broken by freezing in a dry ice-ethanol bath, followed by thawing in 24° C. water baths. The preparation was centrifugation (40,000 x g, 20 minutes, 4° C.) and the pellet resuspended in 10 mM Trizma 7.4, 20 mM CaCL2, 5 mg/ml human albumin. Protein concentration in the platelet membrane preparation was determined by the Lowry method [ref]. Aliquots of the membrane preparation were stored at -70° C. Each preparation was characterized for PAF receptor number and dissociation constant (Kd). In binding assays 5 μl of test compound, solubilzed in DMSO, was added to polypropylene tubes along with 0.75 nM [^3 H]PAF and 200 mcl [0.075 nM] of membranes and 95 μl 10 mM Trizma 7.4, 20 mM CaCL2, 5 mg/ml human albumin. Tubes were incubated for 30 minutes at 24° C. The incubation was terminated by adding 4 ml of ice-cold 10 mM Trizma DH 7.4, 20 mM CaCL2 and 20 mg/ml BSA prior to vacuum filtration using Whatman GF/C filters. Filters were prepared and counted for a scintillation counter. All DPM values were corrected for background and isotope decay. Triplicate determinations for single doses were averaged. The amount of non-specific binding was subtracted from all dose averages, giving an amount of specific binding in all cases. The IC50 values for compounds of the invention determined by the Allfit program using percent displacement data. Allfit is a `basic` computer program for simultaneous curve fitting of a family of signoidal dose-response curves using the four parameter logistic equation.

[2] = tested on: PAF-induced aggregation of human platelets; assay: Assay B: Human Platelet Aggregation Inhibition (PAF-induced aggregation in human platelet-rich plasma); type: cell-based; settings: 37°
Procedure: Compounds of the invention were evaluated for their ability to inhibit PAF-induced aggregation of human platelets in a human-platelet-rich plasma. Venous blood was collected from donors who fasted for 8 hours and were instructed not to use antiinflammatory drugs for 2 weeks prior to blood draw. Blood was collected into syringes containing 0.1 ml of 3.8% [w/v] citrate and centrifuged in polypropylene tubes at 150xg for 20 minutes at room temperature. The platelet rich plasma [PRP] was collected and let sit for 20 minutes at room temperature. Platelet activating factor [PAF] was diluted in 0.9% NaCl with 0.25% bovine serum albumin. Silicon treated cuvettes with stir bars were placed in the 37° heating block of the platelet aggregometer [Bio/Data Corporation, Platelet Aggregation Profiler, Model PAP-4]. PRP and test compound were added to cuvettes and aggregation monitored for 10-15 seconds at 37° with stirring. PAF was added and aggregation monitored for an additional 3 minutes. Peak aggregation was considered the peak of the first aggregation wave usually 45-60 seconds after PAF addition. Inhibition of aggregation was determined by the following: 1-[(% aggregation in the presence of compound).div.(% maximal aggregation)]. A log/logit transformation was used to determine half maximal inhibitory concentration of a test compound [IC50 ].

[3] = target: T2, [^3 H]PAF receptors on human neutrophil membrane (Homo sapiens, UniProt P25105); assay: Assay C: Human Neutrophil Receptor Binding (inhibition of specific [^3 H]PAF binding to human neutrophil membrane); settings: human neutrophil membranes, 0.9 nM [^3 H]PAF, 30 minutes at 24°, pH 7.4
T2 construct: Human neutrophils were isolated from venous blood by dextran sedimentation; from tissue; host or cells: human neutrophils from venous blood (membrane preparation)
T2 sequence (P25105 whole entry): as above
Procedure: Compounds of the invention were evaluated for their ability to inhibit PAF-induced specific binding of [^3 H]PAF to receptors on human neutrophil membrane. Human neutrophils were isolated from venous blood by dextran sedimentation followed by density gradient centrifugation using Ficoll-Hypaque [J. Biol. Chem., 254:7865-7869, 1979]. Residual red blood cells were removed by hypotonic lysis. Neutrophils were suspended in 50 mM Tris-HCl buffer, pH 7.7, and cells disrupted by sonication for 15 seconds on ice. Unbroken cells and nuclei were removed by slow speed centrifugation [1000xg, 10 min. 4°]. The resultant supernatant was centrifuged at 100,000xg for 60 minutes at 4°. The pellet was suspended in 10 mM Tris-HCl, pH 7.4, with 10 mM MgCl2. Protein content was determined by the method of Lowry [J. Biol. Chem., 193:265-275, 1951]. Membranes were characterized for the concentration of binding sites [Bmax] and affinity for the ligand [Kd] using [^3 H]PAF by Scatchard analysis. Binding assays were conducted by incubating 50 mcg of membranes with 0.9 nM [^3 H]PAF and test compounds in 10 mM Tris-HCl buffer, pH 7.4, containing 0.1% bovine serum albumin. Nonspecific binding was determined by the addition of 1 μM PAF. Binding assay were done for 30 minutes at 24°. The assay was terminated by filtration-through a Whatman GF/C glass filters and radioactivity determined by liquid scintillation counting.

| Compound | IC50 [1] [nM] | also measured |
| --- | --- | --- |
| COc1cc(C(=O)N(C2CCCC2)C2CCCC2)ccc1Cn1cnc2cccnc21 [Example 1] | 1030 | – |
| COc1cc(C(=O)N(C2CCCC2)C2CCCC2)ccc1Cn1cnc2ncccc21 [Example 2, N, N-dicyclopentyl-4-(1H-imidazo[4,5-b]pyridin-1-ylmethyl)-3-methoxybenzamide] | 78 | IC50 [2]: 227 nM |
| COc1cc(Cn2cnc3cccnc32)ccc1C(=O)N(C(C)C)C1CCCCC1 [Example 3, N-cyclohexyl-4-(3H-imidazo[4,5-b]pyridin-3-ylmethyl)-2-methoxy-N-(1-methylethyl)benzamide] | 2 | IC50 [2]: 7 nM; IC50 [3]: 0.5 nM |
| COc1cc(Cn2cnc3ncccc32)ccc1C(=O)N(C(C)C)C1CCCCC1 [Example 4, N-cyclohexyl-4-(1H-imidazo[4,5-b]pyridin-1-ylmethyl)-2-methoxy-N-(1-methylethyl)benzamide] | 150 | – |
| COc1cc(C(=O)N(C(C)C)C2CCCCC2)ccc1Cn1cnc2cccnc21 [Example 5, N-cyclohexyl-4-(3H-imidazo[4,5-b]pyridin-3-ylmethyl)-3-methoxy-N-(1-methylethyl)benzamide] | 420 | – |
| COc1cc(C(=O)N(C(C)C)C2CCCCC2)ccc1Cn1cnc2ncccc21 [Example 6, N-cyclohexyl-4-(1H-imidazo[4,5-b]pyridin-1-ylmethyl)-3-methoxy-N-(1-methylethyl)benzamide] | 6 | IC50 [2]: 113 nM; IC50 [3]: 8 nM |
| COc1cc(Cn2cnc3cccnc32)ccc1C(=O)N(C1CCCC1)C1CC(C)CC(C)C1 (stereo not shown) [Example 7, N-cyclopentyl-N-(3,5-dimethylcyclohexyl)-4-(3H-imidazo[4,5-b]pyridin-3-ylmethyl)-2-methoxybenzamide] | 73 | – |
| COc1cc(Cn2cnc3ncccc32)ccc1C(=O)N(C1CCCC1)C1CC(C)CC(C)C1 (stereo not shown) [Example 8, N-cyclopentyl-N-(3,5-dimethylcyclohexyl)-4-(1H-imidazo[4,5-b]pyridin-1-ylmethyl)-2-methoxybenzamide] | 35 | IC50 [2]: 7 nM; IC50 [3]: 23 nM |
| Cc1cc(C(=O)N(C2CCCCC2)C2CCCC2)ccc1Cn1cnc2ncccc21 [Example 9, N-cyclohexyl-N-cyclopentyl-4-(1H-imidazo[4,5-b]pyridin-1-ylmethyl)-3-methylbenzamide] | 479 | – |
| Cc1cc(C(=O)N(C2CCCCC2)C2CCCC2)ccc1Cn1cnc2cccnc21 [Example 10, N-cyclohexyl-N-cyclopentyl-4-(3H-imidazo[4,5-b]pyridin-3-ylmethyl)-3-methylbenzamide] | 5240 | – |
| COc1cc(C(=O)N(C(C)C)C2CCCCC2)ccc1Cn1c(CO[Si](C)(C)C(C)(C)C)nc2ncccc21 [Example 16, N-cyclohexyl-4-[[2-[[[(1,1-dimethyethyl)dimethylsilyl]oxy]methyl]-1H-imidazo[4,5-b]pyridin-1-yl]methyl]-3-methoxy-N-(1-methylethyl)benzamide] | 51 | – |

More lines, main results first:

| IC50 [1] [nM] | Compound | also measured |
| --- | --- | --- |
| 9 | COc1cc(C(=O)N(C(C)C)C2CCCCC2)ccc1Cn1c(C)nc2ncccc21 [Example 11, N-cyclohexyl-3-methoxy-N-(1-methylethyl)-4-[(2-methyl-1H-imidazo[4,5-b]pyridin-1-yl)methyl]benzamide] | – |
| 1160 | COc1cc(C(=O)N(C(C)C)C2CCCCC2)ccc1Cn1c(C)nc2cccnc21 [Example 12, N-cyclohexyl-3-methoxy-N-(1-methylethyl)-4-[(2-methyl-3H-imidazo [4,5-b]pyridin-3-yl)methyl]benzamide] | – |
| 206 | COc1cc(Cn2cnc3ncccc32)ccc1C(=O)N(C1CCCCC1)C1CCCC1 [Example 13, N-cyclohexyl-N-cyclopentyl-4-(1H-imidazo[4,5-b]pyridin-1-ylmethyl)-2-methoxybenzamide] | – |
| 395 | COc1cc(C(=O)N(C(C)C)C2CCCCC2)ccc1Cn1c(-c2ccccc2Cl)nc2ncccc21 [Example 14, 4-[[2-(2-chlorophenyl)-1H-imidazo[4,5-b]pyridin-1-yl]methyl]-N-cyclohexyl-3-methoxy-N-(1-methylethyl)benzamide] | – |
| 574 | COc1cc(C(=O)N(C(C)C)C2CCCCC2)ccc1Cn1c(-c2ccccc2Cl)nc2cccnc21 [Example 15, 4-[[2-(2-chlorophenyl) -3H-imidazo[4,5-b]pyridin-3yl]methyl]-N-cyclohexyl-3-methoxy-N-(1-methylethyl)benzamide] | – |
| 6 | COc1cc(C(=O)N(C(C)C)C2CCCCC2)ccc1Cn1c(CO)nc2ncccc21 [Example 17, N-cyclohexyl-4-[[2-(hydroxymethyl)-1H-imidazo [4,5-b]pyridin-1-yl]methyl]-3-methoxy-N-(1-methylethyl)benzamide] | – |
| 11 | COc1cc(C(=O)N(C(C)C)C2CCCCC2)ccc1Cn1c(CO)nc2cccnc21 [Example 18, N-cyclohexyl-4-[[2-(hydroxymethyl)-3H-imidazo [4,5-b]pyridin-3-yl]methyl]-3-methoxy-N-(1-methylethyl)benzamide] | – |
| 3 | COc1cc(C(=O)N(C(C)C)C2CCCCC2)ccc1Cn1c(CN(C)C)nc2ncccc21 [Example 19, N-cyclohexyl-4-[[2-[(dimethylamino)methyl]-1H-imidazo[4,5-b]pyridin-1-yl]methyl]-3-methoxy-N-(1-methylethyl)benzamide] | – |
| 10 | COc1cc(C(=O)N(C(C)C)C2CCCCC2)ccc1Cn1c(CN(C)C)nc2cccnc21 [Example 20, N-cyclohexyl-4-[[2-[(dimethylamino)methyl]-3H-imidazo[4,5-b]pyridin-3-yl]methyl]-3-methoxy-N-(1-methylethyl)benzamide] | inhibition at 0.01 µM ([1]; at 10 nM, two-run average): 62% |
| 9 | COCc1nc2ncccc2n1Cc1ccc(C(=O)N(C(C)C)C2CCCCC2)cc1OC [Example 21, N-cyclohexyl-3-methoxy-4-[[2-(methoxymethyl)-1H-imidazo [4,5-b]pyridin-1-yl]methyl]-N-(1-methylethyl)benzamide] | – |
| 88 | COCc1nc2cccnc2n1Cc1ccc(C(=O)N(C(C)C)C2CCCCC2)cc1OC [Example 22, N-cyclohexyl-3-methoxy-4-[[2-(methoxymethyl)-3H-imidazo[4,5-b]pyridin-3-yl]methyl]-N-(1-methylethyl)benzamide] | – |
| 13 | COc1cc(C(=O)N(C(C)C)C2CCCCC2)ccc1Cn1c(N(C)C)nc2ncccc21 [Example 23, N-cyclohexyl-4-[[2-(dimethylamino)-1H-imidazo[4,5-b]pyridin-1-yl]methyl]-3-methoxy-N-(1-methylethyl)benzamide] | – |

Reference: US5359073A, “Substituted-phenyl (N,N'-cycloalkyl/alkyl carboxamide)-1H/3H-imidazo[4,5-b]pyridine compounds as PAF antagonists” (G. D. Searle & Co., priority 1992, dated 1994)
